Structures can show the parent of a compound that is named as a salt.
Each compound was assayed against T1, Lats1 (Homo sapiens, UniProt O95835) (assay: In vitro kinase assay (HTRF KinEASE-STK S1) Lats1, 2 mM ATP). Conditions: not given.
T1 construct: purchased Carna 01-123
T1 sequence (O95835 1-1130): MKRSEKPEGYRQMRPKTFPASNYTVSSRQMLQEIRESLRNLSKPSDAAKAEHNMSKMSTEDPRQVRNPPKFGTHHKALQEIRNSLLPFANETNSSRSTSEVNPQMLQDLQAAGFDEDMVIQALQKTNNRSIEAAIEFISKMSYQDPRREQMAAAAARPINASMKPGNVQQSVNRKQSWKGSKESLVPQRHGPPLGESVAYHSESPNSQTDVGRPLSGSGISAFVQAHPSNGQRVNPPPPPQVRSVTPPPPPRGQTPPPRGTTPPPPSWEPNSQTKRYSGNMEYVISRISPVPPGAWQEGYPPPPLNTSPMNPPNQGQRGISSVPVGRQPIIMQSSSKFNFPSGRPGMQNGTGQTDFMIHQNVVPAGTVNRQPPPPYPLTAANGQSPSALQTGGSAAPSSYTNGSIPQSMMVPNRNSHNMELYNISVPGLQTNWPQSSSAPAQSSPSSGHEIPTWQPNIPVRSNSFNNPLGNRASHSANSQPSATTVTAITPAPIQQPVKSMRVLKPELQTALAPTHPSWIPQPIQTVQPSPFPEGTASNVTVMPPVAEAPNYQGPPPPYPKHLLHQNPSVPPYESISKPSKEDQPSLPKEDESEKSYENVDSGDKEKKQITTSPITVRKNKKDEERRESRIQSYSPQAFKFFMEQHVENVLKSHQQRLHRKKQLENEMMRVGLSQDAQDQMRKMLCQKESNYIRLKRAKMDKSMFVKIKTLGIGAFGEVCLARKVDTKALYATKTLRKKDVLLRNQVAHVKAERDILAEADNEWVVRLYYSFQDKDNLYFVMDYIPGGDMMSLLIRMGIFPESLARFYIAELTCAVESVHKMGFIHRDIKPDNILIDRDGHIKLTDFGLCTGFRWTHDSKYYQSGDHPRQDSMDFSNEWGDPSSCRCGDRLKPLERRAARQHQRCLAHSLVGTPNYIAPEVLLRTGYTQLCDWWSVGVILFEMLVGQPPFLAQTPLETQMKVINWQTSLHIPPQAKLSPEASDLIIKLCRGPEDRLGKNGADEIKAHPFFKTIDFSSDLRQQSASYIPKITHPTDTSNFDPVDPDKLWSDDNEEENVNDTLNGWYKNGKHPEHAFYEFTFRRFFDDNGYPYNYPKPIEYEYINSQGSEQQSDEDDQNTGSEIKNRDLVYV
Type: biochemical
Description: (§1) Reactions were conducted with 10 μM STK1 substrate and 10 μM ATP or 2 mM ATP as shown below. […] The enzyme, substrate, ATP, and test compound of the invention were combined in a low-volume 384-well plate and shaken for 50 min at room temperature, unless otherwise indicated. The reaction was stopped by adding the detection reagents, which were prepared at an 8:1 biotin:streptavidin ratio and shaking for 60 min at room temperature. All reactions were conducted in triplicate and a Synergy NEO (Biotek) was used to detect the signal.
Assay was carried out in a 384 well plate. Each drug dosage curve was done with 16 points of 3-fold dilutions in 100% DMSO, and triplicate.

Q: How did the IC50 turn out when O=C(/N=c1\scc(CO)n1Cc1ccccc1)c1c[nH]c2ncccc12 [T72, (Z)—N-(3-benzyl-4-(hydroxymethyl)thiazol-2(3H)-ylidene)-1H-pyrrolo[2,3-b]pyridine-3-carboxamide] was run?
A: 0.2 nM

Q: How did the IC50 turn out when NCc1ccccc1-n1ccs/c1=N\C(=O)c1c[nH]c2ncccc12 [T32] was run?
A: 43 nM

Q: How did the IC50 turn out when O=C(/N=c1\sccn1-c1cccnc1)c1c[nH]c2ncccc12 [T31] was run?
A: 3800 nM

Q: With COc1ccc(-n2ccs/c2=N\C(=O)c2c[nH]c3ncccc23)cc1 [T24] as the compound, how does the IC50 read?
A: 112 nM

Q: CN(C)CCNC(=O)c1cs/c(=N\C(=O)c2c[nH]c3ncccc23)n1Cc1ccccc1 [T80, (Z)-3-Benzyl-N-[2-(dimethylamino)ethyl]-2-(1H-pyrrolo[2,3-b]pyridine-3-carbonylimino)thiazole-4-carboxamide] was tested. Which IC50 did it give?
A: 82 nM

Q: With O=C(O)CCn1ccs/c1=N\C(=O)c1c[nH]c2ncccc12 [T51, (Z)-3-(2-((1H-pyrrolo[2,3-b]pyridine-3-carbonyl)imino)thiazol-3(2H)-yl)propanoic acid] as the compound, how does the IC50 read?
A: 607 nM

Q: With CN(C)C(=O)c1cs/c(=N\C(=O)c2c[nH]c3ncccc23)n1-c1ccccc1Cl [T82] as the compound, how does the IC50 read?
A: 20 nM

Q: Which IC50 does the source give for O=C(/N=c1\sccn1C1CCNCC1)c1c[nH]c2ncccc12 [T75, (Z)—N-(3-(piperidin-4-yl)thiazol-2(3H)-ylidene)-1H-pyrrolo[2,3-b]pyridine-3-carboxamide hydrochloride] here?
A: 92.5 nM

Q: Nc1cc(-n2ccs/c2=N\C(=O)c2c[nH]c3ncccc23)ccn1 [T35] was tested. Which IC50 did it give?
A: 329 nM

Q: How did the IC50 turn out when O=C(/N=c1\sccn1C1CCCCC1)c1c[nH]c2ncccc12 [T57, (Z)—N-(3-cyclohexylthiazol-2(3H)-ylidene)-1H-pyrrolo[2,3-b]pyridine-3-carboxamide] was run?
A: 0.5 nM

Q: For O=C(/N=c1\sccn1Cc1ccncc1)c1c[nH]c2ncccc12 [T52, (Z)—N-(3-(pyridin-4-ylmethyl)thiazol-2(3H)-ylidene)-1H-pyrrolo[2,3-b]pyridine-3-carboxamide], which IC50 is on record?
A: 4880 nM

Q: Which IC50 does the source give for Cc1ccccc1-n1ccs/c1=N\C(=O)c1c[nH]c2ncccc12 [T19] here?
A: 0.3 nM

Q: For CCOC(=O)c1cs/c(=N\C(=O)c2c[nH]c3ncccc23)n1Cc1ccccc1 [T79, Ethyl (2Z)-3-benzyl-2-(1H-pyrrolo[2,3-b]pyridine-3-carbonylimino)thiazole-4-carboxylate], which IC50 is on record?
A: 22 nM

Q: Cc1cs/c(=N\C(=O)c2c[nH]c3ncccc23)n1C1CCCCC1 [T74] was tested. Which IC50 did it give?
A: 0.2 nM

Q: Which IC50 does the source give for O=C(/N=c1\sccn1Cc1ccccn1)c1c[nH]c2ncccc12 [T54] here?
A: 11000 nM

Q: How did the IC50 turn out when O=C(/N=c1\sccn1-c1ccccc1Br)c1c[nH]c2ncccc12 [T29] was run?
A: 20.5 nM

Q: NC(=O)c1cccc(-n2ccs/c2=N\C(=O)c2c[nH]c3ncccc23)c1 [T60] was tested. Which IC50 did it give?
A: 418 nM

Q: Which IC50 does the source give for O=C(/N=c1\sccn1-c1ccc(Cl)cc1)c1c[nH]c2ncccc12 [T27] here?
A: 44.9 nM

Q: Which IC50 does the source give for O=C(/N=c1\sccn1-c1ccccn1)c1c[nH]c2ncccc12 [T30] here?
A: 279 nM

Q: For CC(C)c1cs/c(=N\C(=O)c2c[nH]c3ncccc23)n1Cc1ccccc1 [T69], which IC50 is on record?
A: 168 nM

Q: For O=C(/N=c1\sccn1-c1ccc(CO)cc1)c1c[nH]c2ncccc12 [T36], which IC50 is on record?
A: 60 nM

Q: For O=C(/N=c1\scc(C(F)(F)F)n1Cc1ccccc1)c1c[nH]c2ncccc12 [T71], which IC50 is on record?
A: 176 nM

Q: For NCc1cccc(-n2ccs/c2=N\C(=O)c2c[nH]c3ncccc23)c1 [T61, (Z)—N-(3-(3-(aminomethyl)phenyl)thiazol-2(3H)-ylidene)-1H-pyrrolo[2,3-b]pyridine-3-carboxamide], which IC50 is on record?
A: 18.6 nM

Q: With O=C(/N=c1\sccn1C1CCOCC1)c1c[nH]c2ncccc12 [T76] as the compound, how does the IC50 read?
A: 2190 nM

Q: For O=C(/N=c1\sccn1Cc1cccnc1)c1c[nH]c2ncccc12 [T53, (Z)—N-(3-(pyridin-3-ylmethyl)thiazol-2(3H)-ylidene)-1H-pyrrolo[2,3-b]pyridine-3-carboxamide], which IC50 is on record?
A: 1100 nM

Same assay, conditions: 2 mM ATP; read-out: LATS1_HTRF_2 mM ATP IC50

Q: For Cc1ccc(-n2ccs/c2=N\C(=O)c2c[nH]c3ncccc23)cc1 [T21], which IC50 is on record?
A: 7.5 nM

Q: How did the IC50 turn out when O=C(/N=c1\sccn1-c1cccc(Cl)c1)c1c[nH]c2ncccc12 [T66] was run?
A: 193 nM

Q: How did the IC50 turn out when Cc1cccc(-n2ccs/c2=N\C(=O)c2c[nH]c3ncccc23)c1 [T20] was run?
A: 155 nM

Q: With Cn1cc(Cn2ccs/c2=N\C(=O)c2c[nH]c3ncccc23)cn1 [T59] as the compound, how does the IC50 read?
A: 6060 nM

Q: CNC(=O)c1cs/c(=N\C(=O)c2c[nH]c3ncccc23)n1-c1ccccc1Cl [T81] was tested. Which IC50 did it give?
A: 3.67 nM

Q: For Cc1cs/c(=N\C(=O)c2c[nH]c3ncccc23)n1CC1CCCCC1 [T73], which IC50 is on record?
A: 0.8 nM

Q: For COc1ccccc1-n1ccs/c1=N\C(=O)c1c[nH]c2ncccc12 [T22], which IC50 is on record?
A: 720 nM

Q: Which IC50 does the source give for CCc1cs/c(=N\C(=O)c2c[nH]c3ncccc23)n1Cc1ccccc1 [T68] here?
A: 59.5 nM

Q: How did the IC50 turn out when COc1cccc(-n2ccs/c2=N\C(=O)c2c[nH]c3ncccc23)c1 [T23] was run?
A: 576 nM

Q: Cc1ccnc2[nH]cc(C(=O)/N=c3\sccn3Cc3ccccc3)c12 [T05] was tested. Which IC50 did it give?
A: 3260 nM

Q: How did the IC50 turn out when O=C(/N=c1\sccn1-c1ccc2c(c1)CNCC2)c1c[nH]c2ncccc12 [T62, (Z)—N-(3-(1,2,3,4-tetrahydroisoquinolin-7-yl)thiazol-2(3H)-ylidene)-1H-pyrrolo[2,3-b]pyridine-3-carboxamide] was run?
A: 126 nM

Q: Which IC50 does the source give for O=C(/N=c1\sccn1CC1CCOCC1)c1c[nH]c2ncccc12 [T56] here?
A: 1020 nM

Q: Which IC50 does the source give for O=C(/N=c1\occ(CO)n1Cc1ccccc1)c1c[nH]c2ncccc12 [T78, (Z)—N-(3-benzyl-4-(hydroxymethyl)oxazol-2(3H)-ylidene)-1H-pyrrolo[2,3-b]pyridine-3-carboxamide] here?
A: 1.6 nM

Q: With Cc1co/c(=N\C(=O)c2c[nH]c3ncccc23)n1Cc1ccccc1 [T77, (Z)—N-(3-benzyl-4-methyloxazol-2(3H)-ylidene)-1H-pyrrolo[2,3-b]pyridine-3-carboxamide] as the compound, how does the IC50 read?
A: 107 nM

Q: For Cn1c(Cc2ccccc2)cs/c1=N\C(=O)c1c[nH]c2ncccc12 [T64], which IC50 is on record?
A: 7860 nM

Q: Which IC50 does the source give for O=C(/N=c1\sccn1-c1ccccc1Cl)c1c[nH]c2ncccc12 [T65] here?
A: 0.1 nM

Q: With N#Cc1ccccc1-n1ccs/c1=N\C(=O)c1c[nH]c2ncccc12 [T28] as the compound, how does the IC50 read?
A: 194 nM

The compounds below were run against T1, Lats1 (assay: In vitro kinase assay (HTRF KinEASE-STK S1) Lats1, 10 uM ATP). Conditions: not given.
Type: biochemical
Description: IVKA assay at 10 uM method:
as §1

Q: For O=Cc1ccc(Cn2ccs/c2=N\C(=O)c2c[nH]c3ncccc23)cc1 [T48, (Z)—N-(3-(4-formylbenzyl)thiazol-2(3H)-ylidene)-1H-pyrrolo[2,3-b]pyridine-3-carboxamide], which IC50 is on record?
A: 800 nM

Same assay, conditions: 10 uM ATP; read-out: LATS1_HTRF_10 uM ATP IC50

Q: How did the IC50 turn out when N#Cc1ccc(Cn2ccs/c2=N\C(=O)c2c[nH]c3ncccc23)cc1 [T46, (Z)—N-(3-(4-cyanobenzyl)thiazol-2(3H)-ylidene)-1H-pyrrolo[2,3-b]pyridine-3-carboxamide] was run?
A: 391 nM

Q: Cc1cnc2[nH]cc(C(=O)/N=c3\sccn3Cc3ccccc3)c2c1 [T03] was tested. Which IC50 did it give?
A: 148 nM

Q: How did the IC50 turn out when N#Cc1ccccc1Cn1ccs/c1=N\C(=O)c1c[nH]c2ncccc12 [T42, (Z)—N-(3-(2-cyanobenzyl)thiazol-2(3H)-ylidene)-1H-pyrrolo[2,3-b]pyridine-3-carboxamide] was run?
A: 12.9 nM

Q: Which IC50 does the source give for Cc1[nH]c2ncccc2c1C(=O)/N=c1\sccn1Cc1ccccc1 [T04] here?
A: 159 nM

Q: Which IC50 does the source give for O=C(/N=c1\sccn1CCc1ccccc1)c1c[nH]c2ncccc12 [T40] here?
A: 88.7 nM

Q: Which IC50 does the source give for NCc1ccc(Cn2ccs/c2=N\C(=O)c2c[nH]c3ncccc23)cc1 [T47, (Z)—N-(3-(4-(aminomethyl)benzyl)thiazol-2(3H)-ylidene)-1H-pyrrolo[2,3-b]pyridine-3-carboxamide] here?
A: 83.2 nM

Q: How did the IC50 turn out when COC(=O)c1cccc(Cn2ccs/c2=N\C(=O)c2c[nH]c3ncccc23)c1 [T33] was run?
A: 224 nM

Q: How did the IC50 turn out when Cn1ccs/c1=N\C(=O)c1c[nH]c2ncccc12 [T37, (Z)—N-(3-methylthiazol-2(3H)-ylidene)-1H-pyrrolo[2,3-b]pyridine-3-carboxamide] was run?
A: 233 nM

Q: Cc1cn(Cc2ccccc2)/c(=N/C(=O)c2c[nH]c3ncccc23)s1 [T26] was tested. Which IC50 did it give?
A: 74.5 nM

Q: With O=C(O)c1cccc(Cn2ccs/c2=N\C(=O)c2c[nH]c3ncccc23)c1 [T34] as the compound, how does the IC50 read?
A: 6250 nM

Q: With CCn1ccs/c1=N\C(=O)c1c[nH]c2ncccc12 [T38, (Z)—N-(3-ethylthiazol-2(3H)-ylidene)-1H-pyrrolo[2,3-b]pyridine-3-carboxamide] as the compound, how does the IC50 read?
A: 27 nM
